According to patent US20100028889A1, “COMPANION DIAGNOSTIC ASSAYS FOR CANCER THERAPY” (ABBOTT LABORATORIES, priority 2006, published 2010):
pEC50: −log10 of the molar value. Read-outs that look alike come from different tables or passages of the source.

Legend:
Assay in all cases: sensitivity of SCLC cell line, procedure of Oltersdorf
Type in all cases: cell-based
DMS 114 = conditions: Homo sapiens, read-out: sensitivity class by EC50
Experimental: (§1) The following SCLC cell lines were obtained from ATCC (Manassis, Va.): NCI-H889, NCI-H1963, NCI-H1417, NCI-H146, NCI-H187, DMS53, NCI-H510, NCI-H209, NCI-H211, NCI-H345, NCI-H524, NCI-H69, DMS79, SHP77, NCI-H1688, NCI-H446, NCI-H740, NCI-H1048, NCI-H82, NCI-H196, SW1271, H69AR, NCI-H526, NCI-H865, NCI-H748, NCI-H711, and DMS114. All cells were cultured in the ATCC recommended media at 37° C. in a humidified atmosphere containing 5% CO2. The following leukemia and lymphoma cell lines were obtained from ATCC (Manassis, Va.): MV-4-11, RS4;11, Loucy, KG-1A, DOHH2, Rs11380, CCRF-HSB-2, CCRF-CEM, CEM/C1, Reh, SUP-B15, MOLT-4, SUDHL4, HL-60, RPMI 8226, A3, Daudi, WSU-NHL, Pfeiffer, Jurkat I 9.2, Jurkat, MEG-01, U-937, K-562, and Raji.
(§2) The 27 SCLC cell lines were tested for sensitivity to ABT-737 using the procedure described in Oltersdorf, T., “An inhibitor of Bcl-2 family proteins induces regression of solid tumours”, Nature, 435: 677-681, 2005, with a cell line classified as sensitive if its EC50<5 μM and as resistant if its EC50>5 µM. The sensitive cell line group consisted of NCI-H889, NCI-H1963, NCI-H1417, NCI-H146, DMS 53, NCI-H187, NCI-H510, NCI-H209, NCI-H345, NCI-H526, NCI-H211, NCI-H865, NCI-H524, NCI-H748, DMS 79, NCI-H69, NCI-H711, SHP 77, NCI-H1688, and the resistant cell line group was comprised of NCI-H446, NCI-H740, NCI-H1048, NCI-H82, NCI-H196, SW1271, DMS 114, and NCI-H69AR.
(§3) The 22 SCLC cell lines were tested for sensitivity to ABT-263 using the procedure described in Oltersdorf, T., “An inhibitor of Bcl-2 family proteins induces regression of solid tumours”, Nature, 435: 677-681, 2005, with a cell line classified as sensitive if its EC50<5 µM and as resistant if its EC50>5 μM. The sensitive cell line group consisted of NCI-H146, NCI-H889, NCI-H1963, NCI-H187, NCI-H1417, NCI-H211, NCI-H69, NCI-H209, NCI-H510, DMS 53, DMS 79, NCI-H345, NCI-H1048, SHP 77, NCI-H446 and the resistant cell line group was comprised of NCI-H1688, NCI-H740, NCI-H82, NCI-H69AR, SW1271, DMS 114 and NCI-H 196.

DMS 53 = conditions: Homo sapiens, read-out: sensitivity class by EC50
Experimental: as §1, §2, §3

DMS 79 = conditions: Homo sapiens, read-out: sensitivity class by EC50
Experimental: as §1, §2, §3

NCI-H1048 = conditions: Homo sapiens, read-out: sensitivity class by EC50
Experimental: as §1, §2, §3

NCI-H1417 = conditions: Homo sapiens, read-out: sensitivity class by EC50
Experimental: as §1, §2, §3

NCI-H146 = conditions: Homo sapiens, read-out: sensitivity class by EC50
Experimental: as §1, §2, §3

NCI-H1688 = conditions: Homo sapiens, read-out: sensitivity class by EC50
Experimental: as §1, §2, §3

NCI-H187 = conditions: Homo sapiens, read-out: sensitivity class by EC50
Experimental: as §1, §2, §3

NCI-H1963 = conditions: Homo sapiens, read-out: sensitivity class by EC50
Experimental: as §1, §2, §3

NCI-H196 = conditions: Homo sapiens
Experimental: as §1, §2, §3

NCI-H209 = conditions: Homo sapiens, read-out: sensitivity class by EC50
Experimental: as §1, §2, §3

NCI-H211 = conditions: Homo sapiens, read-out: sensitivity class by EC50
Experimental: as §1, §2, §3

NCI-H345 = conditions: Homo sapiens, read-out: sensitivity class by EC50
Experimental: as §1, §2, §3

NCI-H446 = conditions: Homo sapiens, read-out: sensitivity class by EC50
Experimental: as §1, §2, §3

NCI-H510 = conditions: Homo sapiens, read-out: sensitivity class by EC50
Experimental: as §1, §2, §3

NCI-H69AR = conditions: Homo sapiens, read-out: sensitivity class by EC50
Experimental: as §1, §2, §3

NCI-H69 = conditions: Homo sapiens, read-out: sensitivity class by EC50
Experimental: as §1, §2, §3

NCI-H740 = conditions: Homo sapiens, read-out: sensitivity class by EC50
Experimental: as §1, §2, §3

NCI-H82 = conditions: Homo sapiens, read-out: sensitivity class by EC50
Experimental: as §1, §2, §3

NCI-H889 = conditions: Homo sapiens, read-out: sensitivity class by EC50
Experimental: as §1, §2, §3

SHP 77 = conditions: Homo sapiens, SHP77, read-out: sensitivity class by EC50
Experimental: as §1, §2, §3

SW1271 = conditions: Homo sapiens, read-out: sensitivity class by EC50
Experimental: as §1, §2, §3

NCI-H524 = conditions: Homo sapiens, read-out: sensitivity class by EC50
Experimental: as §1, §2

NCI-H526 = conditions: Homo sapiens, read-out: sensitivity class by EC50
Experimental: as §1, §2

NCI-H711 = conditions: Homo sapiens, read-out: sensitivity class by EC50
Experimental: as §1, §2

NCI-H748 = conditions: Homo sapiens, read-out: sensitivity class by EC50
Experimental: as §1, §2

NCI-H865 = conditions: Homo sapiens, read-out: sensitivity class by EC50
Experimental: as §1, §2

Row | Compound | pEC50 (DMS 114) | pEC50 (DMS 53) | pEC50 (DMS 79) | pEC50 (NCI-H1048) | pEC50 (NCI-H1417) | pEC50 (NCI-H146) | pEC50 (NCI-H1688) | pEC50 (NCI-H187) | pEC50 (NCI-H1963) | pEC50 (NCI-H209) | pEC50 (NCI-H211) | pEC50 (NCI-H345) | pEC50 (NCI-H446) | pEC50 (NCI-H510) | pEC50 (NCI-H69AR) | pEC50 (NCI-H69) | pEC50 (NCI-H740) | pEC50 (NCI-H82) | pEC50 (NCI-H889) | pEC50 (SHP 77) | other results
1 | CC1(C)CCC(c2ccc(Cl)cc2)=C(CN2CCN(c3ccc(C(=O)NS(=O)(=O)c4ccc(N[C@H](CCN5CCOCC5)CSc5ccccc5)c(S(=O)(=O)C(F)(F)F)c4)cc3)CC2)C1 [ABT-263, N-(4-(4-((2-(4-chlorophenyl)-5,5-dimethyl-1-cyclohex-1-en-1-yl)methyl)piperazin-1-yl)benzoyl)-4-(((1R)-3-(morpholin-4-yl)-1-((phenylsulfanyl)methyl)propyl)amino)-3-((trifluoromethyl)sulfonyl)benzenesulfonamide] | < 5.30 | > 5.30 | > 5.30 | > 5.30 | > 5.30 | > 5.30 | < 5.30 | > 5.30 | > 5.30 | > 5.30 | > 5.30 | > 5.30 | > 5.30 | > 5.30 | < 5.30 | > 5.30 | < 5.30 | < 5.30 | > 5.30 | > 5.30 | pEC50 (NCI-H196; NCI-H 196, read-out: sensitivity class by EC50): < 5.30; pEC50 (SW1271): < 5.30
2 | CN(C)CC[C@H](CSc1ccccc1)Nc1ccc(S(=O)(=O)NC(=O)c2ccc(N3CCN(Cc4ccccc4-c4ccc(Cl)cc4)CC3)cc2)cc1[N+](=O)[O-] [ABT-737, N-(4-(4-((4′-chloro(1,1′-biphenyl)-2-yl)methyl)piperazin-1-yl)benzoyl)-4-(((1R)-3-(dimethylamino)-1-((phenylsulfanyl)methyl)propyl)amino)-3-nitrobenzenesulfonamide] | < 5.30 | > 5.30 | > 5.30 | < 5.30 | > 5.30 | > 5.30 | > 5.30 | > 5.30 | > 5.30 | > 5.30 | > 5.30 | > 5.30 | < 5.30 | > 5.30 | < 5.30 | > 5.30 | < 5.30 | < 5.30 | > 5.30 | > 5.30 | pEC50 (NCI-H196; read-out: sensitivity class by EC50): < 5.30; pEC50 (SW1271): < 5.30; pEC50 (NCI-H524): > 5.30; pEC50 (NCI-H526): > 5.30; pEC50 (NCI-H711): > 5.30; pEC50 (NCI-H748): > 5.30; pEC50 (NCI-H865): > 5.30
